# Reference: patent US20070093520A1, “Method of treatment of diarrhea-predominant irritable bowel syndrome in a subject” (priority 2005, published 2007)
# System: diarrhea-predominant IBS subjects
# Assay: 3007 Study: open-label 52-week safety study, adverse events and withdrawals
# Conditions: Placebo/Cilansetron 2 mg
smiles,measurement,value
"Cc1nccn1C[C@H]1CCc2c(c3cccc4c3n2CCC4)C1=O [cilansetron, (R)-(−)-4,5,6,8,9,10-hexahydro-10-[(2-methyl-1H-imidazol-1-yl)methyl]-11H-pyrido-[3,2,1-jk]-carbazol-11-one]",TEAE: Eructation,0 n (%)
same,TEAE: Eye Injuries NEC,0 n (%)
same,TEAE: Faecal Abnormality NOS,1 (<1%) n (%)
same,TEAE: Faecal Impaction,1 (<1%) n (%)
same,TEAE: Faecal Incontinence,3 (1%) n (%)
same,TEAE: Faecal Occult Blood Positive,8 (3%) n (%)
same,TEAE: Faeces Abnormal,7 (3%) n (%)
same,TEAE: Faeces Hard,5 (2%) n (%)
same,TEAE: Fibromyalgia,0 n (%)
same,TEAE: Flatulence,10 (4%) n (%)
same,"TEAE: Flatulence, Bloating and Distension",13 (5%) n (%)
same,TEAE: Food Poisoning NOS,2 (<1%) n (%)
same,TEAE: Foot Fracture,1 (<1%) n (%)
same,TEAE: Fractures and Dislocations NEC,0 n (%)
same,TEAE: Frequent Bowel Movements,0 n (%)
same,TEAE: Fungal Infection NOS,1 (<1%) n (%)
same,TEAE: Fungal Infections NEC,4 (1%) n (%)
same,TEAE: Gamma-Glutamyltransferase Increased,3 (1%) n (%)
same,TEAE: Gastric Irritation,0 n (%)
same,TEAE: Gastritis (Excl Infective),0 n (%)
same,TEAE: Gastritis NOS,0 n (%)
same,TEAE: Gastroenteritis NOS,5 (2%) n (%)
same,TEAE: Gastroenteritis Viral NOS,6 (2%) n (%)
same,TEAE: Gastrointestinal Atonic and Hypomotility Disorders NEC,63 (23%) n (%)
same,TEAE: Gastrointestinal Disorders,134 (48%) n (%)
same,TEAE: Gastrointestinal Disorders NEC,2 (<1%) n (%)
same,TEAE: Gastrointestinal Dyskinetic Disorders,2 (<1%) n (%)
same,TEAE: Gastrointestinal Histopathology Procedures,12 (4%) n (%)
same,TEAE: Gastrointestinal Infections - Pathogen Class Unspecified,5 (2%) n (%)
same,TEAE: Gastrointestinal Inflammatory Disorders NEC,1 (<1%) n (%)
same,TEAE: Gastrointestinal Motility Disorder NOS,1 (<1%) n (%)
same,TEAE: Gastrointestinal Mucosal Dystrophies and Secretion Disorders,0 n (%)
same,TEAE: Gastrointestinal Signs and Symptoms NEC,2 (<1%) n (%)
same,TEAE: Gastrointestinal Spastic and Hypermotility Disorders,0 n (%)
same,TEAE: Gastrointestinal and Abdominal Pains (Excl Oral and Throat),33 (12%) n (%)
same,TEAE: Gingival Abscess,0 n (%)
same,TEAE: Gingival Atrophy,0 n (%)
same,TEAE: Gingival Disorders NEC,2 (<1%) n (%)
same,TEAE: Gingival Pain,0 n (%)
same,TEAE: Gingival Pains,0 n (%)
same,TEAE: Gingivitis,2 (<1%) n (%)
same,TEAE: Gingivitis Infection NOS,0 n (%)
same,TEAE: Glucose Urine Present,0 n (%)
same,TEAE: Groin Pain,0 n (%)
same,TEAE: Haematocrit Decreased,0 n (%)
same,TEAE: Haemoglobin Decreased,0 n (%)
same,TEAE: Haemorrhoidal Haemorrhage,2 (<1%) n (%)
same,TEAE: Haemorrhoids,7 (3%) n (%)
same,TEAE: Haemorrhoids Aggravated,1 (<1%) n (%)
same,TEAE: Haemorrhoids and Gastrointestinal Varices (Excl Oesophageal),9 (3%) n (%)
same,TEAE: Halitosis,0 n (%)
same,TEAE: Headache NOS,12 (4%) n (%)
same,TEAE: Headache NOS Aggravated,2 (<1%) n (%)
same,TEAE: Headaches NEC,14 (5%) n (%)
same,TEAE: Heart Rate Increased,1 (<1%) n (%)
same,TEAE: Heart Rate and Pulse Investigations,1 (<1%) n (%)
same,TEAE: Heat Exhaustion,0 n (%)
same,TEAE: Heat Injuries (Excl Thermal Burns),0 n (%)
same,TEAE: Helicobacter Pylori Antibody Positive,0 n (%)
same,TEAE: Herpes Simplex,1 (<1%) n (%)
same,TEAE: Herpes Simplex Aggravated,0 n (%)
same,TEAE: Herpes Viral Infections,2 (<1%) n (%)
same,TEAE: Herpes Zoster,1 (<1%) n (%)
same,TEAE: Hiatus Hernia,0 n (%)
same,TEAE: Hyperreflexia,0 n (%)
same,TEAE: Hypoaesthesia,1 (<1%) n (%)
same,TEAE: Infected Varicose Vein,0 n (%)
same,TEAE: Infections NEC,1 (<1%) n (%)
same,TEAE: Infections and Infestations,67 (24%) n (%)
same,TEAE: Influenza,7 (3%) n (%)
same,TEAE: Influenza Viral Infections,7 (3%) n (%)
same,TEAE: Inguinal Hernia NOS,1 (<1%) n (%)
same,TEAE: Inguinal Hernias,1 (<1%) n (%)
same,"TEAE: Injury, Poisoning and Procedural Complications",21 (8%) n (%)
same,TEAE: Intervertebral Disc Degeneration NOS,0 n (%)
same,TEAE: Intervertebral Disc Disorder NOS,0 n (%)
same,TEAE: Intervertebral Disc Disorders NEC,0 n (%)
same,TEAE: Intervertebral Disc Herniation,0 n (%)
same,TEAE: Intestinal Haemorrhages,4 (1%) n (%)
same,TEAE: Intraocular Pressure Increased,1 (<1%) n (%)
same,TEAE: Investigations,49 (18%) n (%)
same,TEAE: Irritable Bowel Syndrome,0 n (%)
same,TEAE: Irritable Bowel Syndrome Aggravated,0 n (%)
same,TEAE: Joint Related Disorders NEC,1 (<1%) n (%)
same,TEAE: Joint Related Signs and Symptoms,3 (1%) n (%)
same,TEAE: Joint Sprain,3 (1%) n (%)
same,TEAE: Joint Swelling,0 n (%)
same,TEAE: Kidney Infection NOS,1 (<1%) n (%)
same,TEAE: Laceration,3 (1%) n (%)
same,TEAE: Ligament Sprain,1 (<1%) n (%)
same,TEAE: Limb Discomfort NOS,1 (<1%) n (%)
same,TEAE: Limb Injuries NEC (Incl Traumatic Amputation),3 (1%) n (%)
same,TEAE: Limb Injury NOS,0 n (%)
same,TEAE: Lip and Palate Disorders NEC,1 (<1%) n (%)
same,TEAE: Liver Function Analyses,11 (4%) n (%)
same,TEAE: Liver Function Tests NOS Abnormal,2 (<1%) n (%)
same,TEAE: Localised Infection,1 (<1%) n (%)
same,TEAE: Localised Osteoarthritis,0 n (%)
same,TEAE: Loss of Consciousness,0 n (%)
same,TEAE: Lower Limb Fracture NOS,1 (<1%) n (%)
same,TEAE: Lower Limb Fractures and Dislocations,2 (<1%) n (%)
same,TEAE: Lower Respiratory Tract and Lung Infections,7 (3%) n (%)
same,TEAE: Lymphocyte Count Increased,0 n (%)
same,TEAE: Memory Loss (Excl Dementia),0 n (%)
same,TEAE: Metabolic Bone Disorders,1 (<1%) n (%)
same,TEAE: Metabolism Tests NEC,2 (<1%) n (%)
same,TEAE: Migraine Headaches,0 n (%)
same,TEAE: Migraine NOS,0 n (%)
same,TEAE: Mineral and Electrolyte Analyses,0 n (%)
same,TEAE: Monoarthritis,1 (<1%) n (%)
same,TEAE: Monocyte Count Decreased,1 (<1%) n (%)
same,TEAE: Monocyte Count Increased,0 n (%)
same,TEAE: Mononeuropathies,1 (<1%) n (%)
same,TEAE: Movement Disorder NOS,1 (<1%) n (%)
same,TEAE: Muscle Cramps,2 (<1%) n (%)
same,TEAE: Muscle Infections and Inflammations,1 (<1%) n (%)
same,TEAE: Muscle Pains,1 (<1%) n (%)
same,TEAE: Muscle Related Signs and Symptoms NEC,2 (<1%) n (%)
same,TEAE: Muscle Spasms,0 n (%)
same,TEAE: Muscle Strain,3 (1%) n (%)
same,TEAE: Muscle Tone Abnormalities,0 n (%)
same,"TEAE: Muscle, Tendon and Ligament Injuries",4 (1%) n (%)
same,TEAE: Musculoskeletal Chest Pain,0 n (%)
same,TEAE: Musculoskeletal and Connective Tissue Disorders,31 (11%) n (%)
same,TEAE: Musculoskeletal and Connective Tissue Signs and Symptoms NEC,14 (5%) n (%)
same,TEAE: Musculoskeletal and Soft Tissue Imaging Procedures,1 (<1%) n (%)
same,TEAE: Myalgia,1 (<1%) n (%)
same,TEAE: Myasthenia Gravis,1 (<1%) n (%)
same,TEAE: Mycoplasma Infections,0 n (%)
same,TEAE: Myeloradiculopathy,1 (<1%) n (%)
same,TEAE: Myositis,1 (<1%) n (%)
same,TEAE: Nail Fungal Infection NOS,2 (<1%) n (%)
same,TEAE: Nail Infection NOS,0 n (%)
same,TEAE: Nasopharyngitis,10 (4%) n (%)
same,TEAE: Nausea,10 (4%) n (%)
same,TEAE: Nausea and Vomiting Symptoms,14 (5%) n (%)
same,TEAE: Neck Pain,0 n (%)
same,TEAE: Nervous System Disorders,23 (8%) n (%)
same,TEAE: Neurological Signs and Symptoms NEC,2 (<1%) n (%)
same,TEAE: Neuromuscular Junction Dysfunction,1 (<1%) n (%)
same,TEAE: Neutrophil Count Decreased,0 n (%)
same,TEAE: Night Cramps,0 n (%)
same,TEAE: Nitrite Urine Present,1 (<1%) n (%)
same,TEAE: Non-Accidental Overdose,0 n (%)
same,TEAE: Non-Site Specific Injuries NEC,6 (2%) n (%)
same,TEAE: Non-Site Specific Procedural Complications,5 (2%) n (%)
same,TEAE: Ophthalmic Function Diagnostic Procedures,1 (<1%) n (%)
same,TEAE: Oral Dryness and Saliva Altered,1 (<1%) n (%)
same,TEAE: Osteoarthritis Aggravated,0 n (%)
same,TEAE: Osteoarthropathies,0 n (%)
same,TEAE: Osteopenia,1 (<1%) n (%)
same,TEAE: Osteoporosis NOS,1 (<1%) n (%)
same,TEAE: Otitis Media NOS,1 (<1%) n (%)
same,TEAE: Overdoses,0 n (%)
same,TEAE: Pain in Limb,4 (1%) n (%)
same,TEAE: Paraesthesias and Dysaesthesias,1 (<1%) n (%)
same,TEAE: Parkinson's Disease NOS,0 n (%)
same,TEAE: Parkinson's Disease and Parkinsonism,0 n (%)
same,TEAE: Periorbital Haematoma,0 n (%)
same,TEAE: Peripheral Swelling,0 n (%)
same,TEAE: Pharyngitis Streptococcal,3 (1%) n (%)
same,TEAE: Physical Examination Procedures,1 (<1%) n (%)
same,TEAE: Plantar Fasciitis,2 (<1%) n (%)
same,TEAE: Pneumonia Mycoplasmal,0 n (%)
same,TEAE: Pneumonia NOS,1 (<1%) n (%)
same,TEAE: Popliteal Bursitis,1 (<1%) n (%)
same,TEAE: Post Procedural Discomfort,1 (<1%) n (%)
same,TEAE: Post Procedural Pain,4 (1%) n (%)
same,TEAE: Proctalgia,4 (1%) n (%)
